In article PMC5730406 (European journal of immunology, 2015):

Target: T1, Itk F434G/Δ429 (Itkas) (Homo sapiens, UniProt Q08881, DEL429-429/F435G)
T1 sequence (Q08881 with tags, fused parts or gaps DEL429-429/F435G): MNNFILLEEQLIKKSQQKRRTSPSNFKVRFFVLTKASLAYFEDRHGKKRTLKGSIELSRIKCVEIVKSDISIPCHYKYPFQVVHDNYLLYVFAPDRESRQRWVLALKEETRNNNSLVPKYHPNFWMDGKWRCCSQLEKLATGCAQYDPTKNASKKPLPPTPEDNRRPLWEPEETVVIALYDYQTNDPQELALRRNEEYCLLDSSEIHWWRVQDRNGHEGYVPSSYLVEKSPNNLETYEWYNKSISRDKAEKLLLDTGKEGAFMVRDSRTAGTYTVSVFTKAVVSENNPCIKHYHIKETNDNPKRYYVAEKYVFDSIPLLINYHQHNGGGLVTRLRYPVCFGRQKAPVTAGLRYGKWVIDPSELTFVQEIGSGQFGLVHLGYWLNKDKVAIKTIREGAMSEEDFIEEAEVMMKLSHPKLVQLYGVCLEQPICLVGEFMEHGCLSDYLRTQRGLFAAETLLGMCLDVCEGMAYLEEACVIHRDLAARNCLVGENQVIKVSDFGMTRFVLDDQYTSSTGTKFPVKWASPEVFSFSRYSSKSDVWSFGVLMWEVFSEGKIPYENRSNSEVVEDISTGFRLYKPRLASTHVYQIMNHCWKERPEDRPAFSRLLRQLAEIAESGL
Format: cell-based

IC50: ~50 nM
SMILES: CC(C)(C)n1nc(Cc2cccc3ccccc23)c2c(N)ncnc21 [1-NM-PP1]
